Source: patent publication US20250354970A1, “SYSTEMS, METHODS, AND APPARATUSES FOR CHARACTERIZING RELEASE PROFILES FOR LONG-ACTING INJECTABLE MEDICATIONS” (Gilead Sciences, Inc., priority 2024, published 2025)

Assay: Unit input response, intravenous bolus plasma concentration
Format: in vivo
Conditions: human, read-out: Plasma Concentration of API A
Text: In predicting plasma concentration time profiles, we used two steps. First, we time scaled in vitro release profiles to use as our reference. Second, we obtained convolution of time-scaled in vitro release profile with unit input response (UIR) we obtained using intravenous bolus dose profile in a physiologically based pharmacokinetic model (PBPK).
FIG. 18 illustrates use of convolution of time-scaled in vitro release profile data (panel A, Table 4) with unit input response (UIR) obtained using an intravenous bolus dose (panel B, Table 5) to generate predictive plasma concentration-time profiles (panel C, Table 6). Panel A includes time-scaled mean in vitro release profiles of various solution-based subcutaneous long acting injectables of API. Panel C includes observed versus predicted mean plasma concentration-time profiles in humans for various solution-based subcutaneous long acting injectables of API A.

Compound: CC(C)(C#Cc1ccc(-c2ccc(Cl)c3c(NS(C)(=O)=O)nn(CC(F)(F)F)c23)c([C@H](Cc2cc(F)cc(F)c2)NC(=O)Cn2nc(C(F)(F)F)c3c2C(F)(F)[C@@H]2C[C@H]32)n1)S(C)(=O)=O [API A, Lenacapavir]
- concentration at 0 days (0.00 days): 0 ng/mL
- concentration at 0.04 days (0.04 days): 162 ng/mL
- concentration at 0.08 days (0.08 days): 27.7 ng/mL
- concentration at 0.17 days (0.17 days): 14 ng/mL
- concentration at 0.25 days (0.25 days): 7.73 ng/mL
- concentration at 0.33 days (0.33 days): 5.71 ng/mL
- concentration at 0.5 days (0.50 days): 4.68 ng/mL
- concentration at 1 days (1.00 days): 4.33 ng/mL
- concentration at 2 days (2.00 days): 4.37 ng/mL
- concentration at 3 days (3.00 days): 4.29 ng/mL
- concentration at 5 days (5.00 days): 3.49 ng/mL
- concentration at 7 days (7.00 days): 3.45 ng/mL
- concentration at 9 days (9.00 days): 2.84 ng/mL
- concentration at 11 days (11.00 days): 2.61 ng/mL
- concentration at 14 days (14.00 days): 2.33 ng/mL
- concentration at 20.92 days (20.92 days): 1.71 ng/mL
- concentration at 27.92 days (27.92 days): 1.1 ng/mL
- concentration at 34.96 days (34.96 days): 0.71 ng/mL
- concentration at 41.96 days (41.96 days): 0.43 ng/mL
- concentration at 55.96 days (55.96 days): 0.25 ng/mL
